Measured values taken from patent publication EP0048827A1, “Substituted 2,4-dichlorophenyl-imidazolyl-vinyl ketones, processes for their preparation and antimicrobial agents containing these compounds” (BAYER AG, priority 1980, dated 1982).

These compounds were tested on Dermatophyten und Schimmelpilze; Hefen (assay: Antimycotic in-vitro activity, serial dilution test). Settings: 28°C, 24 h for yeasts, 96 h for dermatophytes and moulds, compared with the prior-art compound (A).
Type: cell-based
Protocol: Die in-vitro-Prüfung wurde im Reihenverdünnungstest mit Keiminokula von durchschnittlich […] Substrat durchgeführt. Als Nährmedium dienten • a) für Dermatophyten und Schimmelpilze: Sabourand's milieu d'epresive • b) für Hefen: Isotonic Sensitest-Broth von Oxid.
Die Bebrütungstemperatur betrug 28°C; Bebrütungsdauer war 24 Stunden bei Hefen und 96 Stunden bei Dermatophyten und Schimmelpilzen.

| Compound | antimykotische Wirkung |
| --- | --- |
| 1-(2,4-Dichlorphenyl)-2-Eimidazol-1-yl)-3-(methylcyclohexen-3-yl)-2-propen-l-on [Beispiel 1] | bessere antimykotische Wirkung als die aus dem Stand der Technik bekannte Verbindung (A) |
| CCCC(C)C=C(C(=O)c1ccc(Cl)cc1Cl)n1ccnc1 (centres unmarked) [Beispiel 7] | bessere antimykotische Wirkung als die aus dem Stand der Technik bekannte Verbindung (A) |
| CCCCC(C=C(C(=O)c1ccc(Cl)cc1Cl)n1ccnc1)CC (centres unmarked) [Beispiel 9] | bessere antimykotische Wirkung als die aus dem Stand der Technik bekannte Verbindung (A) |
| CCC(C=C(C(=O)c1ccc(Cl)cc1Cl)n1ccnc1)CC [Beispiel 5] | bessere antimykotische Wirkung als die aus dem Stand der Technik bekannte Verbindung (A) |
| CCC(C)C=C(C(=O)c1ccc(Cl)cc1Cl)n1ccnc1 (centres unmarked) [Beispiel 6] | bessere antimykotische Wirkung als die aus dem Stand der Technik bekannte Verbindung (A) |
